Assay results as given in US12617779B2, “Self degradation-type CDK9 inhibitor prodrug and liposome encapsulating same” (Sumitomo Pharma Co., Ltd., priority 2021, dated 2026).
One block for each molecule: values may come before it.

Test: Evaluation of conversion rate to active form in buffer solution (Experimental Example 1)
Type: physicochemical
Conditions: for Stability in buffer solution at pH 5: pH 5, 37° C., up to 2 or 3 hours
Method in brief: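 Prodrugs were held at 25 umol/L and 37° C in 50 mM citrate (pH 5.0, 5.5) or 50 mM phosphate (pH 6.0–7.4) buffer. Parent remaining and Alvocidib formed were quantified by HPLC at 0, 0.5, 1, 2 and 3 hours.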

[1] = pH5.0, 0 hr, 37° C., 25 umol/L in buffer solution
[2] = pH5.0, 0.5 hr, 37° C., 25 umol/L in buffer solution
[3] = pH5.0, 1 hr, 37° C., 25 umol/L in buffer solution
[4] = pH5.0, 2 hr, 37° C., 25 umol/L in buffer solution
[5] = pH5.0, 3 hr, 37° C., 25 umol/L in buffer solution
[6] = pH5.5, 0 hr, 37° C., 25 umol/L in buffer solution
[7] = pH5.5, 0.5 hr, 37° C., 25 umol/L in buffer solution
[8] = pH5.5, 1 hr, 37° C., 25 umol/L in buffer solution
[9] = pH5.5, 2 hr, 37° C., 25 umol/L in buffer solution
[10] = pH5.5, 3 hr, 37° C., 25 umol/L in buffer solution
[11] = pH6.0, 0 hr, 37° C., 25 umol/L in buffer solution
[12] = pH6.0, 0.5 hr, 37° C., 25 umol/L in buffer solution
[13] = pH6.0, 1 hr, 37° C., 25 umol/L in buffer solution
[14] = pH6.0, 2 hr, 37° C., 25 umol/L in buffer solution
[15] = pH6.0, 3 hr, 37° C., 25 umol/L in buffer solution
[16] = pH6.5, 0 hr, 37° C., 25 umol/L in buffer solution
[17] = pH6.5, 0.5 hr, 37° C., 25 umol/L in buffer solution
[18] = pH6.5, 1 hr, 37° C., 25 umol/L in buffer solution
[19] = pH6.5, 2 hr, 37° C., 25 umol/L in buffer solution
[20] = pH6.5, 3 hr, 37° C., 25 umol/L in buffer solution
[21] = pH7.0, 0 hr, 37° C., 25 umol/L in buffer solution
[22] = pH7.0, 0.5 hr, 37° C., 25 umol/L in buffer solution
[23] = pH7.0, 1 hr, 37° C., 25 umol/L in buffer solution
[24] = pH7.0, 2 hr, 37° C., 25 umol/L in buffer solution
[25] = pH7.0, 3 hr, 37° C., 25 umol/L in buffer solution
[26] = pH7.4, 0 hr, 37° C., 25 umol/L in buffer solution
[27] = pH7.4, 0.5 hr, 37° C., 25 umol/L in buffer solution
[28] = pH7.4, 1 hr, 37° C., 25 umol/L in buffer solution
[29] = pH7.4, 2 hr, 37° C., 25 umol/L in buffer solution
[30] = pH7.4, 3 hr, 37° C., 25 umol/L in buffer solution

- Production rate of Alvocidib (pH5.0, 0 hr): 5.0%
- Residual rate (pH5.0, 0 hr): 85.7%
- Stability in buffer solution at pH 5: unstable
- Production rate of Alvocidib (pH5.0, 0.5 hr): 7.1%
- Residual rate (pH5.0, 0.5 hr): 84.0%
- Production rate of Alvocidib (pH5.0, 1 hr): 8.7%
- Residual rate (pH5.0, 1 hr): 82.6%
- Production rate of Alvocidib (pH5.0, 2 hr): 12.8%
- Residual rate (pH5.0, 2 hr): 79.4%
- Production rate of Alvocidib (pH5.0, 3 hr): 15.6%
- Residual rate (pH5.0, 3 hr): 77.0%
- Production rate of Alvocidib (pH5.5, 0 hr): 4.9%
- Residual rate (pH5.5, 0 hr): 86.0%
- Production rate of Alvocidib (pH5.5, 0.5 hr): 8.5%
- Residual rate (pH5.5, 0.5 hr): 83.3%
- Production rate of Alvocidib (pH5.5, 1 hr): 11.3%
- Residual rate (pH5.5, 1 hr): 81.1%
- Production rate of Alvocidib (pH5.5, 2 hr): 17.7%
- Residual rate (pH5.5, 2 hr): 78.4%
- Production rate of Alvocidib (pH5.5, 3 hr): 22.4%
- Residual rate (pH5.5, 3 hr): 74.2%
- Production rate of Alvocidib (pH6.0, 0 hr): 5.0%
- Residual rate (pH6.0, 0 hr): 86.0%
- Production rate of Alvocidib (pH6.0, 0.5 hr): 17.1%
- Residual rate (pH6.0, 0.5 hr): 76.5%
- Production rate of Alvocidib (pH6.0, 1 hr): 26.0%
- Residual rate (pH6.0, 1 hr): 69.2%
- Production rate of Alvocidib (pH6.0, 2 hr): 43.4%
- Residual rate (pH6.0, 2 hr): 53.9%
- Production rate of Alvocidib (pH6.0, 3 hr): 54.0%
- Residual rate (pH6.0, 3 hr): 44.3%
- Production rate of Alvocidib (pH6.5, 0 hr): 5.1%
- Residual rate (pH6.5, 0 hr): 86.0%
- Production rate of Alvocidib (pH6.5, 0.5 hr): 20.9%
- Residual rate (pH6.5, 0.5 hr): 74.7%
- Production rate of Alvocidib (pH6.5, 1 hr): 31.1%
- Residual rate (pH6.5, 1 hr): 66.2%
- Production rate of Alvocidib (pH6.5, 2 hr): 49.6%
- Residual rate (pH6.5, 2 hr): 49.4%
- Production rate of Alvocidib (pH6.5, 3 hr): 60.2%
- Residual rate (pH6.5, 3 hr): 39.1%
- Production rate of Alvocidib (pH7.0, 0 hr): 5.3%
- Residual rate (pH7.0, 0 hr): 85.9%
- Production rate of Alvocidib (pH7.0, 0.5 hr): 21.7%
- Residual rate (pH7.0, 0.5 hr): 75.8%
- Production rate of Alvocidib (pH7.0, 1 hr): 30.7%
- Residual rate (pH7.0, 1 hr): 68.1%
- Production rate of Alvocidib (pH7.0, 2 hr): 47.2%
- Residual rate (pH7.0, 2 hr): 52.8%
- Production rate of Alvocidib (pH7.0, 3 hr): 57.1%
- Residual rate (pH7.0, 3 hr): 42.9%
- Production rate of Alvocidib (pH7.4, 0 hr): 5.6%
- Residual rate (pH7.4, 0 hr): 85.3%
- Production rate of Alvocidib (pH7.4, 0.5 hr): 22.1%
- Residual rate (pH7.4, 0.5 hr): 76.2%
- Production rate of Alvocidib (pH7.4, 1 hr): 29.7%
- Residual rate (pH7.4, 1 hr): 70.3%
- Production rate of Alvocidib (pH7.4, 2 hr): 44.0%
- Residual rate (pH7.4, 2 hr): 56.0%
- Production rate of Alvocidib (pH7.4, 3 hr): 53.3%
- Residual rate (pH7.4, 3 hr): 46.7%
Structure (SMILES): CN1CC[C@H](c2c(O)cc(O)c3c(=O)cc(-c4ccccc4Cl)oc23)[C@H](OC(=O)[C@@H](N)CO)C1 [Comparative Example 9, reference compound]

- Production rate of Alvocidib (pH5.0, 0 hr): 2.8%
- Residual rate (pH5.0, 0 hr): 96.8%
- Stability in buffer solution at pH 5: unstable
- Production rate of Alvocidib (pH5.0, 0.5 hr): 5.7%
- Residual rate (pH5.0, 0.5 hr): 93.9%
- Production rate of Alvocidib (pH5.0, 1 hr): 9.7%
- Residual rate (pH5.0, 1 hr): 90.1%
- Production rate of Alvocidib (pH5.0, 2 hr): 15.7%
- Residual rate (pH5.0, 2 hr): 83.8%
- Production rate of Alvocidib (pH5.0, 3 hr): 21.9%
- Residual rate (pH5.0, 3 hr): 77.6%
- Production rate of Alvocidib (pH5.5, 0 hr): 2.7%
- Residual rate (pH5.5, 0 hr): 97.0%
- Production rate of Alvocidib (pH5.5, 0.5 hr): 7.9%
- Residual rate (pH5.5, 0.5 hr): 91.9%
- Production rate of Alvocidib (pH5.5, 1 hr): 14.3%
- Residual rate (pH5.5, 1 hr): 85.4%
- Production rate of Alvocidib (pH5.5, 2 hr): 23.8%
- Residual rate (pH5.5, 2 hr): 75.9%
- Production rate of Alvocidib (pH5.5, 3 hr): 33.1%
- Residual rate (pH5.5, 3 hr): 66.6%
- Production rate of Alvocidib (pH6.0, 0 hr): 3.4%
- Residual rate (pH6.0, 0 hr): 96.4%
- Production rate of Alvocidib (pH6.0, 0.5 hr): 26.1%
- Residual rate (pH6.0, 0.5 hr): 73.9%
- Production rate of Alvocidib (pH6.0, 1 hr): 48.3%
- Residual rate (pH6.0, 1 hr): 51.7%
- Production rate of Alvocidib (pH6.0, 2 hr): 70.9%
- Residual rate (pH6.0, 2 hr): 28.9%
- Production rate of Alvocidib (pH6.0, 3 hr): 84.8%
- Residual rate (pH6.0, 3 hr): 15.2%
- Production rate of Alvocidib (pH6.5, 0 hr): 3.9%
- Residual rate (pH6.5, 0 hr): 96.0%
- Production rate of Alvocidib (pH6.5, 0.5 hr): 34.7%
- Residual rate (pH6.5, 0.5 hr): 65.3%
- Production rate of Alvocidib (pH6.5, 1 hr): 61.2%
- Residual rate (pH6.5, 1 hr): 38.8%
- Production rate of Alvocidib (pH6.5, 2 hr): 83.2%
- Residual rate (pH6.5, 2 hr): 16.8%
- Production rate of Alvocidib (pH6.5, 3 hr): 93.4%
- Residual rate (pH6.5, 3 hr): 6.6%
- Production rate of Alvocidib (pH7.0, 0 hr): 4.1%
- Residual rate (pH7.0, 0 hr): 95.9%
- Production rate of Alvocidib (pH7.0, 0.5 hr): 37.3%
- Residual rate (pH7.0, 0.5 hr): 62.6%
- Production rate of Alvocidib (pH7.0, 1 hr): 64.3%
- Residual rate (pH7.0, 1 hr): 35.5%
- Production rate of Alvocidib (pH7.0, 2 hr): 85.8%
- Residual rate (pH7.0, 2 hr): 14.2%
- Production rate of Alvocidib (pH7.0, 3 hr): 94.9%
- Residual rate (pH7.0, 3 hr): 5.1%
- Production rate of Alvocidib (pH7.4, 0 hr): 4.2%
- Residual rate (pH7.4, 0 hr): 95.3%
- Production rate of Alvocidib (pH7.4, 0.5 hr): 36.7%
- Residual rate (pH7.4, 0.5 hr): 63.0%
- Production rate of Alvocidib (pH7.4, 1 hr): 63.5%
- Residual rate (pH7.4, 1 hr): 36.3%
- Production rate of Alvocidib (pH7.4, 2 hr): 84.7%
- Residual rate (pH7.4, 2 hr): 15.3%
- Production rate of Alvocidib (pH7.4, 3 hr): 94.4%
- Residual rate (pH7.4, 3 hr): 5.6%
Structure (SMILES): C[C@H](N)C(=O)O[C@@H]1CN(C)CC[C@@H]1c1c(O)cc(O)c2c(=O)cc(-c3ccccc3Cl)oc12 [Comparative Example 7, reference compound]

Structure (SMILES): CN1CC[C@H](c2c(OC(=O)N(CCF)CC3CCCCN3)cc(O)c3c(=O)cc(-c4ccccc4Cl)oc23)[C@H](O)C1 (stereo partly drawn) [Example 11, 2-(2-chlorophenyl)-5-hydroxy-8-[(3S,4R)-3-hydroxy-1-methylpiperidin-4-yl]-4-oxo-4H-1-benzopyran-7-yl (2-fluoroethyl) [(piperidin-2-yl)methyl]carbamate]
- Production rate of Alvocidib [1]: 0.2%
- Residual rate [1]: 83.2%
- Stability in buffer solution at pH 5: stable
- Production rate of Alvocidib [2]: 0.9%
- Residual rate [2]: 82.7%
- Production rate of Alvocidib [3]: 1.8%
- Residual rate [3]: 81.3%
- Production rate of Alvocidib [4]: 3.3%
- Residual rate [4]: 80.5%
- Production rate of Alvocidib [5]: 4.8%
- Residual rate [5]: 79.1%
- Production rate of Alvocidib [6]: 0.2%
- Residual rate [6]: 83.6%
- Production rate of Alvocidib [7]: 2.5%
- Residual rate [7]: 81.8%
- Production rate of Alvocidib [8]: 4.8%
- Residual rate [8]: 79.2%
- Production rate of Alvocidib [9]: 9.4%
- Residual rate [9]: 75.0%
- Production rate of Alvocidib [10]: 14.0%
- Residual rate [10]: 70.2%
- Production rate of Alvocidib [11]: 0.3%
- Residual rate [11]: 83.7%
- Production rate of Alvocidib [12]: 8.5%
- Residual rate [12]: 76.0%
- Production rate of Alvocidib [13]: 16.9%
- Residual rate [13]: 66.6%
- Production rate of Alvocidib [14]: 32.6%
- Residual rate [14]: 49.8%
- Production rate of Alvocidib [15]: 39.4%
- Residual rate [15]: 44.8%
- Production rate of Alvocidib [16]: 0.8%
- Residual rate [16]: 81.4%
- Production rate of Alvocidib [17]: 23.6%
- Residual rate [17]: 60.4%
- Production rate of Alvocidib [18]: 46.5%
- Residual rate [18]: 35.6%
- Production rate of Alvocidib [19]: 60.2%
- Residual rate [19]: 23.7%
- Production rate of Alvocidib [20]: 62.7%
- Residual rate [20]: 21.4%
- Production rate of Alvocidib [21]: 2.1%
- Residual rate [21]: 80.0%
- Production rate of Alvocidib [22]: 53.4%
- Residual rate [22]: 30.1%
- Production rate of Alvocidib [23]: 62.1%
- Residual rate [23]: 22.0%
- Production rate of Alvocidib [24]: 67.0%
- Residual rate [24]: 17.1%
- Production rate of Alvocidib [25]: 71.6%
- Residual rate [25]: 12.4%
- Production rate of Alvocidib [26]: 4.6%
- Residual rate [26]: 79.7%
- Conversion to Alvocidib at pH 7.4 (pH 7.4, 37° C., up to 3 hours): rapidly converted to Alvocidib
- Production rate of Alvocidib [27]: 68.3%
- Residual rate [27]: 16.2%
- Production rate of Alvocidib [28]: 67.0%
- Residual rate [28]: 16.7%
- Production rate of Alvocidib [29]: 67.9%
- Residual rate [29]: 16.2%
- Production rate of Alvocidib [30]: 67.3%
- Residual rate [30]: 15.9%
